Columns and labels:
southern crabgrass [1] = test: Test Example 4: herbicidal effect by soil treatment (Table 19, symbol F); format: in vivo, southern crabgrass (Digitaria ciliaris); conditions: amount of applied herbicide 320 g/ha
Procedure, shortened: (§1)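 Seeds were sown in sterilized diluvial soil and covered with about 1.5 cm of soil. An emulsion formulation diluted with water to a predetermined herbicide amount was sprayed evenly onto the soil surface. Plants grew in a greenhouse at 25° C. to 30° C., and the effect was scored three weeks after application using criteria from an earlier test.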

oval-leafed pondweed [2] = test: Test Example 2: herbicidal activity, application during weed generation under submerged conditions (Table 17, symbol C); format: in vivo, oval-leafed pondweed (Monochoria vaginalis); conditions: AAH 320 g/ha; application during weed generation, submerged conditions
Procedure, shortened: (§2)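 Alluvial soil in Wagner pots was flooded to 4 cm depth and sown with the three weeds together; pots were kept in a greenhouse at 25° C. to 30° C. At the one to two leaf stage, an emulsion formulation diluted in water to a set rate went onto the water surface; scored three weeks later.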

lambsquarters [3] = test: Test Example 5: herbicidal effect by foliage application, plastic box (Table 20, symbol O); format: in vivo, lambsquarters (Chenopodium album); conditions: foliage application, 320 g/ha, three weeks after application
Procedure, shortened: (§3)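 Plants sown in sterilized diluvial soil and grown 14 days in a greenhouse at 25° C to 30° C, then sprayed on the foliage with the compound's emulsion diluted in water to a predetermined herbicide amount. Injury to weeds and crops scored three weeks after application on a visual rating scale.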

barnyard grass [4] = test: Test Example 3: herbicidal effect by foliage application, Wagner pot (Table 18, symbol H); format: in vivo, barnyard grass (Echinochloa crus-galli); conditions: amount of applied herbicide 320 g/ha
Procedure, shortened: (§4)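 Plants were sown in alluvial soil held under 0.1–0.5 cm standing water and grown 14 days in a greenhouse at 25–30 °C. An emulsifiable formulation, water-diluted to the set dose, was then sprayed onto the foliage, and effects were scored three weeks later using previously defined criteria.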

late watergrass [5] = test: Test Example 1: herbicidal activity, application before weed generation under submerged conditions (Table 16, symbol A); format: in vivo, late watergrass (Echinochloa oryzicola); conditions: amount of applied herbicide 320 g/ha
Procedure, shortened: (§5)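 Emulsion formulation, water-diluted to set dose, was put onto the flooded surface (4 cm depth, alluvial soil) the same day weeds were sown and 2.5-leaf rice transplanted. After 3 weeks at 25-30 °C under glass, each species was rated 0 (≤5% kill) to 5 (≥90% kill).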

lambsquarters [6] = test: Test Example 4: herbicidal effect by soil treatment (Table 19, symbol O); format: in vivo, lambsquarters (Chenopodium album); conditions: amount of applied herbicide 320 g/ha
Procedure, shortened: as §1

Japanese bulrush [7] = test: Test Example 2: herbicidal activity, application during weed generation under submerged conditions (Table 17, symbol B); format: in vivo, Japanese bulrush (Schoenoplectus juncoides); conditions: AAH 320 g/ha; application during weed generation, submerged conditions
Procedure, shortened: as §2

barnyard grass [8] = test: Test Example 5: herbicidal effect by foliage application, plastic box (Table 20, symbol H); format: in vivo, barnyard grass (Echinochloa crus-galli); conditions: foliage application, 320 g/ha, three weeks after application
Procedure, shortened: as §3

green foxtail [9] = test: Test Example 5: herbicidal effect by foliage application, plastic box (Table 20, symbol G); format: in vivo, green foxtail (Setaria viridis); conditions: foliage application, 320 g/ha, three weeks after application
Procedure, shortened: as §3

velvetleaf [10] = test: Test Example 4: herbicidal effect by soil treatment (Table 19, symbol M); format: in vivo, velvetleaf (Abutilon theophrasti); conditions: amount of applied herbicide 320 g/ha
Procedure, shortened: as §1

late watergrass [11] = test: Test Example 2: herbicidal activity, application during weed generation under submerged conditions (Table 17, symbol A); format: in vivo, late watergrass (Echinochloa oryzicola); conditions: AAH 320 g/ha; application during weed generation, submerged conditions
Procedure, shortened: as §2

redroot pigweed [12] = test: Test Example 4: herbicidal effect by soil treatment (Table 19, symbol N); format: in vivo, redroot pigweed (Amaranthus retroflexus); conditions: amount of applied herbicide 320 g/ha
Procedure, shortened: as §1

Chinese sprangletop = test: Test Example 3: herbicidal effect by foliage application, Wagner pot (Table 18, symbol D); format: in vivo, chinese sprangletop (Leptochloa chinensis); conditions: amount of applied herbicide 320 g/ha
Procedure, shortened: as §4

green foxtail [13] = test: Test Example 4: herbicidal effect by soil treatment (Table 19, symbol G); format: in vivo, green foxtail (Setaria viridis); conditions: amount of applied herbicide 320 g/ha
Procedure, shortened: as §1

redroot pigweed [14] = test: Test Example 5: herbicidal effect by foliage application, plastic box (Table 20, symbol N); format: in vivo, redroot pigweed (Amaranthus retroflexus); conditions: foliage application, 320 g/ha, three weeks after application
Procedure, shortened: as §3

oval-leafed pondweed [15] = test: Test Example 1: herbicidal activity, application before weed generation under submerged conditions (Table 16, symbol C); format: in vivo, oval-leafed pondweed (Monochoria vaginalis); conditions: amount of applied herbicide 320 g/ha
Procedure, shortened: as §5

velvetleaf [16] = test: Test Example 5: herbicidal effect by foliage application, plastic box (Table 20, symbol M); format: in vivo, velvetleaf (Abutilon theophrasti); conditions: foliage application, 320 g/ha, three weeks after application
Procedure, shortened: as §3

Japanese bulrush [17] = test: Test Example 1: herbicidal activity, application before weed generation under submerged conditions (Table 16, symbol B); format: in vivo, Japanese bulrush (Schoenoplectus juncoides); conditions: amount of applied herbicide 320 g/ha
Procedure, shortened: as §5

barnyard grass [18] = test: Test Example 4: herbicidal effect by soil treatment (Table 19, symbol H); format: in vivo, barnyard grass (Echinochloa crus-galli); conditions: amount of applied herbicide 320 g/ha
Procedure, shortened: as §1

southern crabgrass [19] = test: Test Example 5: herbicidal effect by foliage application, plastic box (Table 20, symbol F); format: in vivo, southern crabgrass (Digitaria ciliaris); conditions: foliage application, 320 g/ha, three weeks after application
Procedure, shortened: as §3

rice flat sedge = test: Test Example 3: herbicidal effect by foliage application, Wagner pot (Table 18, symbol E); format: in vivo, rice flat sedge (Cyperus iria); conditions: amount of applied herbicide 320 g/ha
Procedure, shortened: as §4

| Structure (SMILES) | herbicidal effect, F: southern crabgrass (southern crabgrass [1]) | herbicidal effect rating, C: oval-leafed pondweed (oval-leafed pondweed [2]) | O: lambsquarters, herbicidal effect grade (lambsquarters [3]) | herbicidal effect on H: barnyard grass (barnyard grass [4]) | Herbicidal effect, A: late watergrass (late watergrass [5]) | herbicidal effect, O: lambsquarters (lambsquarters [6]) | herbicidal effect rating, B: Japanese bulrush (Japanese bulrush [7]) | H: barnyard grass, herbicidal effect grade (barnyard grass [8]) | G: green foxtail, herbicidal effect grade (green foxtail [9]) | herbicidal effect, M: velvetleaf (velvetleaf [10]) | herbicidal effect rating, A: late watergrass (late watergrass [11]) | herbicidal effect, N: redroot pigweed (redroot pigweed [12]) | herbicidal effect on D: Chinese sprangletop (Chinese sprangletop) | herbicidal effect, G: green foxtail (green foxtail [13]) | N: redroot pigweed, herbicidal effect grade (redroot pigweed [14]) | Herbicidal effect, C: oval-leafed pondweed (oval-leafed pondweed [15]) | M: velvetleaf, herbicidal effect grade (velvetleaf [16]) | Herbicidal effect, B: Japanese bulrush (Japanese bulrush [17]) | herbicidal effect, H: barnyard grass (barnyard grass [18]) | F: southern crabgrass, herbicidal effect grade (southern crabgrass [19]) | other results |
| --- | --- | --- | --- | --- | --- | --- | --- | --- | --- | --- | --- | --- | --- | --- | --- | --- | --- | --- | --- | --- | --- |
| COCCOc1ccc(-c2sc3ccc(F)cc3c2-c2c(O)cnn(C)c2=O)cc1 [2-441] | 0 (Herbicidal rate of 5% or less (almost no effect)) | 0 (Herbicidal rate of 5% or less (almost no effect)) | 5 (Herbicidal rate of 90% or more (almost completely withered)) | 5 (Herbicidal rate of 90% or more (almost completely withered)) | 3 (Herbicidal rate of 40% or more and less than 70%) | 4 (Herbicidal rate of 70% or more and less than 90%) | 0 (Herbicidal rate of 5% or less (almost no effect)) | 5 (Herbicidal rate of 90% or more (almost completely withered)) | 5 (Herbicidal rate of 90% or more (almost completely withered)) | 1 (Herbicidal rate of 5% or more and less than 20%) | 3 (Herbicidal rate of 40% or more and less than 70%) | 4 (Herbicidal rate of 70% or more and less than 90%) | 0 (Herbicidal rate of 5% or less (almost no effect)) | 0 (Herbicidal rate of 5% or less (almost no effect)) | 5 (Herbicidal rate of 90% or more (almost completely withered)) | 3 (Herbicidal rate of 40% or more and less than 70%) | 5 (Herbicidal rate of 90% or more (almost completely withered)) | 3 (Herbicidal rate of 40% or more and less than 70%) | 0 (Herbicidal rate of 5% or less (almost no effect)) | 4 (Herbicidal rate of 70% or more and less than 90%) | – |
| CC(COc1ccc(-c2sc3ccc(F)cc3c2-c2c(O)c(C)nn(C)c2=O)cc1)=NO [2-453] | 5 (Herbicidal rate of 90% or more (almost completely withered)) | 4 (Herbicidal rate of 70% or more and less than 90%) | 5 (Herbicidal rate of 90% or more (almost completely withered)) | 5 (Herbicidal rate of 90% or more (almost completely withered)) | 3 (Herbicidal rate of 40% or more and less than 70%) | 5 (Herbicidal rate of 90% or more (almost completely withered)) | 4 (Herbicidal rate of 70% or more and less than 90%) | 5 (Herbicidal rate of 90% or more (almost completely withered)) | 5 (Herbicidal rate of 90% or more (almost completely withered)) | 5 (Herbicidal rate of 90% or more (almost completely withered)) | 3 (Herbicidal rate of 40% or more and less than 70%) | 5 (Herbicidal rate of 90% or more (almost completely withered)) | 3 (Herbicidal rate of 40% or more and less than 70%) | 5 (Herbicidal rate of 90% or more (almost completely withered)) | 5 (Herbicidal rate of 90% or more (almost completely withered)) | 3 (Herbicidal rate of 40% or more and less than 70%) | 5 (Herbicidal rate of 90% or more (almost completely withered)) | 3 (Herbicidal rate of 40% or more and less than 70%) | 5 (Herbicidal rate of 90% or more (almost completely withered)) | 5 (Herbicidal rate of 90% or more (almost completely withered)) | herbicidal effect on E: rice flat sedge (rice flat sedge): 2 (Herbicidal rate of 20% or more and less than 40%) |
| COCCS(=O)(=O)c1ccc(-c2sc3ccc(F)cc3c2-c2c(O)c(C)nn(C)c2=O)cc1 [2-455] | 4 (Herbicidal rate of 70% or more and less than 90%) | 0 (Herbicidal rate of 5% or less (almost no effect)) | 3 (Herbicidal rate of 40% or more and less than 70%) | 5 (Herbicidal rate of 90% or more (almost completely withered)) | 3 (Herbicidal rate of 40% or more and less than 70%) | 3 (Herbicidal rate of 40% or more and less than 70%) | 0 (Herbicidal rate of 5% or less (almost no effect)) | 4 (Herbicidal rate of 70% or more and less than 90%) | 3 (Herbicidal rate of 40% or more and less than 70%) | 1 (Herbicidal rate of 5% or more and less than 20%) | 3 (Herbicidal rate of 40% or more and less than 70%) | 4 (Herbicidal rate of 70% or more and less than 90%) | 2 (Herbicidal rate of 20% or more and less than 40%) | 4 (Herbicidal rate of 70% or more and less than 90%) | 5 (Herbicidal rate of 90% or more (almost completely withered)) | 0 (Herbicidal rate of 5% or less (almost no effect)) | 4 (Herbicidal rate of 70% or more and less than 90%) | 0 (Herbicidal rate of 5% or less (almost no effect)) | 0 (Herbicidal rate of 5% or less (almost no effect)) | 4 (Herbicidal rate of 70% or more and less than 90%) | herbicidal effect on E: rice flat sedge (rice flat sedge): 0 (Herbicidal rate of 5% or less (almost no effect)) |

Source: patent US20230085307A1, “PYRIDAZINONE COMPOUND AND HERBICIDE” (NISSAN CHEMICAL CORPORATION, priority 2019, published 2023)
